Source: patent US9682965B2, “Fumagillol heterocyclic compounds and methods of making and using same” (Zafgen, Inc., priority 2015, dated 2017)
Counter-ions that a name gives are not always drawn.

Columns and labels:
[1] = system: Male Sprague Dawley rats on high fat diet; test: 11 day rat DIO model (body weight, food intake, hematology, blood chemistries); assay type: in vivo; conditions: 264 h, DIO rat, once a day for 11 days, read-out: DIO Rat 11-day weight loss vs vehicle; for inhibition in vivo at 0.3 mg/kg: 0.3 mpk sc; for inhibition in vivo at 1 mg/kg: 1.0 mpk sc
Source text: The objective of this study design is to investigate the efficacy of disclosed compounds in an 11 day rat DIO model used to screen compounds for pharmacologic efficacy on endpoints related to obesity and metabolism. Effects on body weight, food intake, hematology and blood chemistries were the primary readouts of this study design. […] Rats were fed Research Diets D12451 (45% High Fat) and provided water ad libitum. Rats were received and housed in the facility for at least two or three weeks prior to start of test article administration. On Day −4 or −3, rats were randomized into study groups based on body weight and body weights were continued to be recorded daily for the duration of the study. Daily food intake was assessed starting on Study Day −2 by weighing the hopper including the food to avoid loss of food in transfer.
Compounds were formulated into a 100% DMSO stock (at 9 mg/mL) prior to the start, and further diluted into the target working concentration using the vehicle of 10% DMSO in water. Prior to test article administration, starting on Day −3 a dosing acclimation occured with all animals receiving a subcutaneous injection of vehicle (10% DMSO) only for 3 days. Starting on Day 1, test compounds or vehicle were administered based on individual body weight, subcutaneously, once a day for 11 days. All animals were sacrificed on Day 11, approximately 2 hours following the final dosing on Day 11. After sacrifice, whole blood was collected and analyzed for hematology and blood chemistry parameters.
Compounds were tested vs. vehicle at various doses (1.0, 0.5, 0.3, 0.1, 0.03 mpk sc (mg per kg animal weight delivered subcutaneously), and the results are shown in Table 2 below.

[2] = system: Diet Induced Obese (DIO) C57BL/6 mice; test: 10 day DIO mouse model (body weight, food intake, hematology, blood chemistry); assay type: in vivo; conditions: 240 h, DIO mouse, once a day for 10 days, read-out: DIO Mouse 10-day weight loss vs vehicle; for inhibition in vivo at 0.3 mg/kg: 0.3 mpk sc
Method in brief: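 DIO C57BL/6 mice on 60% kcal fat diet received compounds subcutaneously once daily for 10 days at 1.0, 0.5, 0.3, 0.1 or 0.03 mpk, in 10% DMSO in water, after 3-day vehicle acclimation. Body weight and food intake were recorded daily. Hematology and blood chemistry were taken on Day 11, 24 h post-final dose.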

Compound | inhibition in vivo at 0.3 mg/kg [1] [%] | inhibition in vivo at 1 mg/kg [1] [%] | inhibition in vivo at 0.3 mg/kg [2] [%] | inhibition in vivo at 0.5 mg/kg ([1]; 0.5 mpk sc) [%] | inhibition in vivo at 0.1 mg/kg ([2]; Mus musculus, sc, 0.1 mpk sc) [%]
CCN(CC)C[C@H]1CCCN1C(=O)O[C@@H]1CC[C@]2(CO2)[C@@H]([C@@]2(C)O[C@@H]2CC=C(C)C)[C@@H]1OC [Example 60, (R)-((3R,4S,5S,6R)-5-methoxy-4-((2R,3R)-2-methyl-3-(3-methylbut-2-enyl)oxiran-2-yl)-1-oxaspiro[2.5]octan-6-yl) 2-((diethylamino)methyl)pyrrolidine-1-carboxylate formate] | 1.95 | 7.79 | 6.3 | – | –
CCN(CC)C[C@@H]1CCN1C(=O)O[C@@H]1CC[C@]2(CO2)[C@@H]([C@@]2(C)O[C@@H]2CC=C(C)C)[C@@H]1OC [Example 40, (S)-((3R,4S,5S,6R)-5-methoxy-4-((2R,3R)-2-methyl-3-(3-methylbut-2-enyl)oxiran-2-yl)-1-oxaspiro[2.5]octan-6-yl) 2-((diethylamino)methyl)azetidine-1-carboxylate formate] | 0.08 | 4.73 | 6 | – | –
CCN(CC)CCC1CCN1C(=O)O[C@@H]1CC[C@]2(CO2)[C@@H]([C@@]2(C)O[C@@H]2CC=C(C)C)[C@@H]1OC (stereo partly drawn) [Example 106, (3R,4S,5S,6R)-5-methoxy-4-((2R,3R)-2-methyl-3-(3-methylbut-2-enyl)oxiran-2-yl)-1-oxaspiro[2.5]octan-6-yl 2-(2-(diethylamino)ethyl)azetidine-1-carboxylate] | – | – | – | 4.82 | 2
CO[C@@H]1[C@H](OC(=O)N2CC(CCN3CCN(CC(F)F)CC3)C2)CC[C@]2(CO2)[C@H]1[C@@]1(C)O[C@@H]1CC=C(C)C [Example 34, (3R,4S,5S,6R)-5-methoxy-4-((2R,3R)-2-methyl-3-(3-methylbut-2-en-1-yl)oxiran-2-yl)-1-oxaspiro[2.5]octan-6-yl 3-(2-(4-(2,2-difluoroethyl)piperazin-1-yl)ethyl)azetidine-1-carboxylate] | 5.1 | – | 9.3 | – | –
CO[C@@H]1[C@H](OC(=O)N2CC(OC(=O)N3CCOCC3)C2)CC[C@]2(CO2)[C@H]1[C@@]1(C)O[C@@H]1CC=C(C)C [Example 71, 1-(((3R,4S,5S,6R)-5-methoxy-4-((2R,3R)-2-methyl-3-(3-methylbut-2-enyl)oxiran-2-yl)-1-oxaspiro[2.5]octan-6-yloxy)carbonyl)azetidin-3-yl morpholine-4-carboxylate formate] | 10.3 | 10.3 | 8.9 | – | –
CNC(=O)OCC1CN(C(=O)O[C@@H]2CC[C@]3(CO3)[C@@H]([C@@]3(C)O[C@@H]3CC=C(C)C)[C@@H]2OC)C1 [Example 69, (3R,4S,5S,6R)-5-methoxy-4-((2R,3R)-2-methyl-3-(3-methylbut-2-enyl)oxiran-2-yl)-1-oxaspiro[2.5]octan-6-yl 3-((methylcarbamoyloxy)methyl)azetidine-1-carboxylate] | 2.1 | – | 12.7 | – | –
CO[C@@H]1[C@H](OC(=O)N2CC(CCN3CCC(F)(F)C3)C2)CC[C@]2(CO2)[C@H]1[C@@]1(C)O[C@@H]1CC=C(C)C [Example 45, (3R,4S,5S,6R)-5-methoxy-4-((2R,3R)-2-methyl-3-(3-methylbut-2-enyl)oxiran-2-yl)-1-oxaspiro[2.5]octan-6-yl 3-(2-(3,3-difluoropyrrolidin-1-yl)ethyl)azetidine-1-carboxylate] | 5.2 | – | 16.8 | – | –
CCN(CC)C[C@H]1CCN1C(=O)O[C@@H]1CC[C@]2(CO2)[C@@H]([C@@]2(C)O[C@@H]2CC=C(C)C)[C@@H]1OC [Example 43, (R)-((3R,4S,5S,6R)-5-methoxy-4-((2R,3R)-2-methyl-3-(3-methylbut-2-enyl)oxiran-2-yl)-1-oxaspiro[2.5]octan-6-yl) 2-((diethylamino)methyl)azetidine-1-carboxylate formate] | 0.35 | 2.9 | 2.7 | – | –
CO[C@@H]1[C@H](OC(=O)N2CC(CCN3CCOCC3)C2)CC[C@]2(CO2)[C@H]1[C@@]1(C)O[C@@H]1CCC(C)C [Example 127, (3R,4S,5S,6R)-4-((2R,3R)-3-isopentyl-2-methyloxiran-2-yl)-5-methoxy-1-oxaspiro[2.5]octan-6-yl 3-(2-morpholinoethyl)azetidine-1-carboxylate] | 6.1 | 10.7 | 15.2 | – | –
CO[C@@H]1[C@H](OC(=O)N2CC(CCC3CCN(CC(F)F)CC3)C2)CC[C@]2(CO2)[C@H]1[C@@]1(C)O[C@@H]1CC=C(C)C [Example 91, (3R,4S,5S,6R)-5-methoxy-4-((2R,3R)-2-methyl-3-(3-methylbut-2-enyl)oxiran-2-yl)-1-oxaspiro[2.5]octan-6-yl 3-(2-(1-(2,2-difluoroethyl)piperidin-4-yl)ethyl)azetidine-1-carboxylate formate] | 17.2 | – | 29.7 | – | –
CCN(CC)C[C@@H]1CCCN1C(=O)O[C@@H]1CC[C@]2(CO2)[C@@H]([C@@]2(C)O[C@@H]2CC=C(C)C)[C@@H]1OC [Example 48, (S)-((3R,4S,5S,6R)-5-methoxy-4-((2R,3R)-2-methyl-3-(3-methylbut-2-enyl)oxiran-2-yl)-1-oxaspiro[2.5]octan-6-yl) 2-((diethylamino)methyl)pyrrolidine-1-carboxylate formate] | 0.65 | 7.88 | 7.2 | – | –
CO[C@@H]1[C@H](OC(=O)N2CC[C@@H](CCN3CCOCC3)C2)CC[C@]2(CO2)[C@H]1[C@@]1(C)O[C@@H]1CC=C(C)C [Example 55, (R)-(3R,4S,5S,6R)-5-methoxy-4-((2R,3R)-2-methyl-3-(3-methylbut-2-en-1-yl)oxiran-2-yl)-1-oxaspiro[2.5]octan-6-yl 3-(2-morpholinoethyl)pyrrolidine-1-carboxylate] | 7.5 | – | 12.2 | – | –
CO[C@@H]1[C@H](OC(=O)N2CC(CN3CCOCC3)C2)CC[C@]2(CO2)[C@H]1[C@@]1(C)O[C@@H]1CC=C(C)C [Example 95, (3R,4S,5S,6R)-5-methoxy-4-((2R,3R)-2-methyl-3-(3-methylbut-2-enyl)oxiran-2-yl)-1-oxaspiro[2.5]octan-6-yl 3-(morpholinomethyl)azetidine-1-carboxylate] | 3 | – | 14.7 | – | –
CO[C@@H]1[C@H](OC(=O)N2CC(OC(=O)N3CCN(CC(F)F)CC3)C2)CC[C@]2(CO2)[C@H]1[C@@]1(C)O[C@@H]1CC=C(C)C [Example 80, 1-(((3R,4S,5S,6R)-5-methoxy-4-((2R,3R)-2-methyl-3-(3-methylbut-2-enyl)oxiran-2-yl)-1-oxaspiro[2.5]octan-6-yloxy)carbonyl)azetidin-3-yl 4-(2,2-difluoroethyl)piperazine-1-carboxylate] | 7.3 | – | 16.5 | – | –
CO[C@@H]1[C@H](OC(=O)N2CC[C@H](CCN3CCOCC3)C2)CC[C@]2(CO2)[C@H]1[C@@]1(C)O[C@@H]1CC=C(C)C [Example 54, (S)-((3R,4S,5S,6R)-5-methoxy-4-((2R,3R)-2-methyl-3-(3-methylbut-2-enyl)oxiran-2-yl)-1-oxaspiro[2.5]octan-6-yl) 3-(2-morpholinoethyl)pyrrolidine-1-carboxylate] | 7.3 | – | 16.4 | – | –
